Measurements as given in PMC12040169 (PLOS Biology, 2025).

Assay: in vitro
Details: human, hela cells, % viability

Row | SMILES | viability at 28.5 h, 10 µM [%]
1 | O=C(NC(c1ccc(Cl)cc1)c1ccsc1)C1CCN(C(=O)Oc2ccc(Cl)cc2)CC1 (centres unmarked) [CBK060044] | 88.5
2 | Cc1nc(-c2ccccc2)sc1CNC(=O)/C=C\C(=O)Nc1ccc(F)cc1 [CBK092357] | 96.2
3 | CC(=O)Nc1ccc(C(=O)Nc2ccc(-c3nc4ccccc4[nH]3)cc2)cc1 [CBK262857] | 84.9
4 | CN(C(=O)[C@H]1CCCC[C@H]1C(=O)O)C1CCS(=O)(=O)C1 (some centres unmarked) [CBK286782] | 106
5 | CCCOc1ccc(C(=O)NCc2ccccn2)cc1 [CBK269789] | 93.9
6 | Cn1nc(C2CCN(C(=O)C3CCCC3)CC2)c2cccnc21 [CBK284899] | 101
7 | CC(=O)Nc1ccc(N(CC(O)Cn2c3ccccc3c3ccccc32)S(C)(=O)=O)cc1 (centres unmarked) [CBK264352] | 96.7
8 | Cc1cc(CNC(=O)c2cc3ccccc3oc2=O)c2ccccc2n1 [CBK269834] | 94.2
9 | Cc1ccc(C(=O)C(OC(=O)c2ccc(-c3nnc(-c4ccccc4)o3)cc2)c2ccccc2)cc1 (centres unmarked) [CBK265177] | 82.7
10 | Cc1ccc(-c2ncc(OCCC(C)C)nc2N)cc1C [CBK145145] | 90.5
11 | C/C(=C1/SC(=S)N(c2cccc(C(=O)O)c2)C1=O)c1cccc([N+](=O)[O-])c1 [CBK265168] | 100
12 | CCOc1ccc(-c2n[nH]c(=S)n2CCC(=O)N2CCCN(Cc3ccc(C#N)cc3)CC2)cc1 [CBK297893] | 95.8
13 | COc1ccc(/C=C(\C)C(=O)Nc2ccc(N3CCNCC3)c3ccccc23)cc1OC [CBK038913T] | 92.4
14 | COc1ccc(C)cc1N(CC(=O)Nc1ccc(F)c(F)c1)S(C)(=O)=O [CBK267006] | 96.5
15 | C/C(=N\N=C1/NC(=O)C(CC(=O)O)S1)c1ccc(CC(C)C)cc1 (centres unmarked) [CBK006661] | 93.5
16 | CN(C)CCCC(=O)NCc1ccc(-c2csnn2)cc1 [CBK149288] | 91
17 | COc1ccc(-c2nc(NC(=O)C3CCC(OC)CC3)cnc2-c2ccc(F)cc2)cc1 (centres unmarked) [CBK037004] | 88.4
18 | CSc1nnc(CCCNC(=O)c2cccc(C#N)c2)n1C1CCCC1 [CBK305459] | 80.9
19 | Cc1onc(-c2ccccc2)c1CNC(=O)c1cccc(C(F)(F)F)c1 [CBK144079] | 93.6
20 | CCOc1cccc(/C=N\NC(=O)C2COc3cc4ccccc4cc3O2)c1O (centres unmarked) [CBK262846] | 110

Row | SMILES | viability at 28.5 h, 10 µM [%]
21 | COc1ccc(OC)c(NC(=O)c2ccc3nccnc3c2)c1 [CBK268997] | 106
22 | O=C(OCCc1ccncc1)N1CCC(F)(F)CC1 [CBK200158] | 105
23 | Cc1ccc2c(c1)nc1n2CCC1O (centres unmarked) [CBK113622] | 88.1
24 | CC(=O)Nc1nc(OCC(F)(F)F)cnc1-c1cccc(C(=O)N(C)C)c1 [CBK145401] | 96
25 | CC(=O)Nc1cccc(NC(=O)CN(C)S(=O)(=O)c2ccc(F)cc2)c1 [CBK269951] | 90.2
26 | CC(C)S(=O)(=O)N1CC2CCCC(O)(c3cccc(F)c3)C2C1 (centres unmarked) [CBK283109] | 109
27 | COCCCNC(=O)Cn1ccc2ccnc(-c3cccs3)c21 [CBK282303] | 109
28 | Nc1ccccc1-c1ccccc1NC(=O)C(=O)O [CBK266824] | 110
29 | CN1CCN(CCC(=O)N2CCN(c3ncccn3)CC2)CC1 [CBK144520] | 84.5
30 | COc1ccc(-n2nc([N+](=O)[O-])c(NCc3ccccn3)[n+]2[O-])cc1 [CBK268430] | 96.3
31 | COc1cccc(C2(NC(=O)CCn3nc(C)cc3C)CCCC2)c1 [CBK283749] | 90.7
32 | CCOC(=O)c1c(NC(=O)CCN2CCCCC2)sc2c1CCCCC2 [CBK265319G] | 89.9
33 | O=C(c1ccoc1)N1CCN(S(=O)(=O)c2ccc3c(c2)Cc2cc(S(=O)(=O)N4CCN(C(=O)c5ccco5)CC4)ccc2-3)CC1 [CBK262299] | 113
34 | NC(=O)CCNC(=O)c1ccc2[nH]ccc2c1 [CBK149082] | 102
35 | CN(C)C(=O)CCc1nc(-c2ccccn2)no1 [CBK297735] | 88.3
36 | O=C(C1=C(O)C(=O)N(CCCN2CCOCC2)C1c1cccnc1)c1ccco1 (centres unmarked) [CBK264528] | 102
37 | O=C1CCC(=O)N1CCOc1nccnc1N1CCN(Cc2ccc([N+](=O)[O-])cc2)CC1 [CBK084294] | 93
38 | CC1(C)CC(N(Cc2ccccc2)C(=O)Cc2ccco2)CCO1 (centres unmarked) [CBK019561] | 95.9
39 | COC(=O)c1cc(CN2CCCN(S(=O)(=O)c3ccc(-n4cnc(Cl)c4Cl)cc3)CC2)cn1C [CBK063080] | 85.2
40 | C=CCNC(=O)N[C@H]1CCN2C(=O)c3ccccc3NC(=O)[C@@H]2C1 [CBK289568] | 102

Row | SMILES | viability at 28.5 h, 10 µM [%]
41 | CC(C(=O)NC1(C#N)CCCCC1)N1CCOC(Cn2cncn2)C1 (centres unmarked) [CBK305359] | 101
42 | FC(F)(F)c1nc2ccccc2nc1OC1CCOC1 (centres unmarked) [CBK115806] | 99.6
43 | CN(c1ncc(-c2cc3ccccc3o2)cc1C(=O)NCC(F)(F)F)S(C)(=O)=O [CBK106479] | 114
44 | CC1CCCN(c2nc3cc(C(=O)O)sc3[nH]2)C1 (centres unmarked) [CBK287159] | 88.8
45 | CCOC(=O)COc1ccc(/C=C2/SC(=S)N(c3cccc(C(=O)O)c3)C2=O)cc1 [CBK265632] | 107
46 | CC1CN(C(=O)Nc2ccccc2F)CC(C)O1 (centres unmarked) [CBK004990] | 89.9
47 | COc1ccc(S(=O)(=O)N2CCCCC2)cc1NC(=O)c1ccc(-c2nnn[nH]2)cc1 [CBK297128] | 93
48 | Cc1nn(C)cc1-c1cncn1C(C)c1ccc2c(c1)CCCO2 (centres unmarked) [CBK281798] | 100
49 | O=C(Nc1n[nH]c2ccccc12)c1ccccc1 [CBK017993] | 90.1
50 | COc1ccc(Cl)cc1-c1noc(Cn2nc(C)c(Cl)c2C)n1 [CBK269813] | 92.1
51 | O=C(O)COc1ccc(-c2nnn(CC(=O)O)n2)cc1 [CBK267124] | 87.6
52 | COC(=O)Nc1ncc(CN2CCCCC2)s1 [CBK268208] | 111
53 | CCOC(=O)N1CCC(NC(=O)N(CCC#N)C2CCCCC2)CC1 [CBK156384] | 90.9
54 | CS(=O)(=O)Nc1nccnc1OC1CCN(CCc2ccccc2)CC1 [CBK084279] | 98.3
55 | O=C(COC(=O)C1CCN(S(=O)(=O)c2cccc3cccnc23)CC1)c1ccc([N+](=O)[O-])cc1 [CBK264412] | 101
56 | CN1CCN(c2ccc(NC(=O)c3cccc(Br)c3)cc2)CC1 [CBK266140] | 97.5
57 | O=C(Oc1ccc(/C=N/c2ccc(-c3nc4ccccc4s3)c(O)c2)cc1)c1ccc(Cl)cc1 [CBK261234] | 100
58 | CC(C)CC(C(=O)Nc1nnc(C(C)C)s1)N1C(=O)c2ccccc2C1=O (centres unmarked) [CBK091610] | 77.3
59 | CC(=O)Nc1cccc(-n2nnnc2SCCCc2nc3ccccc3o2)c1 [CBK298317] | 85.5
60 | CN1CCN(C(=O)c2nc(SCc3ccccc3)ncc2Cl)CC1 [CBK269003] | 86.7

Same assay, conditions: human, hela cells, % viability, bulk resorufin, single well

Row | SMILES | viability at 28.5 h, 10 µM [%]
61 | S=C(Nc1ccc2nc3c4ccccc4c4ccccc4c3nc2c1)N1CCOCC1 [CBK263153] | 94.7
62 | COc1cc(/C=C2/C(=O)NC(=O)N(c3ccccc3)C2=O)cc(Cl)c1O [CBK263361] | 93.3
